Experimental data from ChEMBL document CHEMBL4312016, “Amide-sulfamide modulators as effective anti-tumor metastatic agents targeting CXCR4/CXCL12 axis” (Eur J Med Chem, 2020).
Activity calls are given as the source filed them. No cut-off for these calls is given here.

Experiments:
[1] = molecular target: C-X-C chemokine receptor type 4 (Homo sapiens) (UniProt P61073); assay: Competitive binding affinity at CXCR4 in human MDA-MB-231 cells preincubated for 10 mins followed by biotinylated TN14003 addition further incubated for 30 mins by fluorescence microscopy; assay type: cell-based
Chain of C-X-C chemokine receptor type 4 (Homo sapiens) (P61073 whole entry): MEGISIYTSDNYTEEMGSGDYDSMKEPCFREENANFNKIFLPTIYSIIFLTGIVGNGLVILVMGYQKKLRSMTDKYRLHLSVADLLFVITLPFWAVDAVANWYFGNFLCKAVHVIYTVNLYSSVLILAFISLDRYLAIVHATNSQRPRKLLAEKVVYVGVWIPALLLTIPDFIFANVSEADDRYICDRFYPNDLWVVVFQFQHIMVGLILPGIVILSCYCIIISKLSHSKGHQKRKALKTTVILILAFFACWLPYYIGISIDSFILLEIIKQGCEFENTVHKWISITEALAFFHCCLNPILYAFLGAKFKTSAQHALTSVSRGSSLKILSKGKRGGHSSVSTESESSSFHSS

MDA-MB-231 [2] = assay: Inhibition of fibronectin-induced cell adhesion in human MDA-MB-231 cells at 1 to 10 uM incubated for 6 hrs by inverted microscopy; assay type: functional, cell-based
MDA-MB-231 [3] = assay: Inhibition of cell migration in human MDA-MB-231 cells at 10 uM incubated for 24 hrs by inverted microscopy; assay type: functional, cell-based
[4] = molecular target: C-X-C chemokine receptor type 4 (Homo sapiens) (UniProt P61073); assay: Inhibition of CXCR4-mediated chemotaxis in human MDA-MB-231 cells assessed as reduction in CXCL12alpha-induced cell invasion after 22 hrs by hematoxylin/eosin dye-based matrigel assay relative to control; parameters: concentration or dose not given beside the values; settings: concentration not given here
HUVEC = assay: Antiangiogenic activity in HUVEC assessed as inhibition of tube formation at 10 uM incubated for 4 hrs by matrigel assay; assay type: functional, cell-based; settings: Homo sapiens
[5] = molecular target: C-X-C chemokine receptor type 4 (Homo sapiens) (UniProt P61073); assay: Inhibition of CXCR4-mediated chemotaxis in human MDA-MB-231 cells assessed as reduction in CXCL12alpha-induced cell invasion after 22 hrs by hematoxylin/eosin dye-based matrigel assay
MDA-MB-231 [6] = assay: Inhibition of metastasis in human MDA-MB-231 cells assessed as decrease in p-4E-BP1 expression at 10 uM incubated for 24 hrs by Western blot analysis; assay type: functional, cell-based
MDA-MB-231 [7] = assay: Inhibition of cell migration in human MDA-MB-231 cells incubated for 24 hrs by inverted microscopy; assay type: functional, cell-based
MDA-MB-231 [8] = assay: Inhibition of metastasis in human MDA-MB-231 cells assessed as decrease in p-mTOR expression at 10 uM incubated for 24 hrs by Western blot analysis; assay type: functional, cell-based
MDA-MB-231 [9] = assay: Antimetastatic activity against human MDA-MB-231 cells xenografted in BALB/c mouse assessed as reduction in lung metastasis at 20 mg/kg, ip administered twice a day for 2 weeks and measured on day 14 relative to control; assay type: functional; settings: MDA-MB-231, ip, 336 h
[10] = Toxicity in BALB/c mouse xenografted with human MDA-MB-231 cells assessed as effect on body weight at 20 mg/kg, po administered twice a day for 2 weeks; assay type: organism-based; settings: in vivo, 336 h
MDA-MB-231 [11] = assay: Antimetastatic activity against human MDA-MB-231 cells xenografted in BALB/c mouse assessed as reduction in lung metastatic nodules at 20 mg/kg, ip administered twice a day for 2 weeks and measured on day 14; assay type: functional, organism-based
MDA-MB-231 [12] = assay: Inhibition of metastasis in human MDA-MB-231 cells assessed as decrease in P70S6K expression at 10 uM incubated for 24 hrs by Western blot analysis; assay type: functional, cell-based

| Compound | EC [1] | other results |
| --- | --- | --- |
| O=C(NCc1ccc(CNS(=O)(=O)c2ccccc2F)cc1)c1cccnc1 | 100 nM | – |
| Cc1ccccc1S(=O)(=O)NCc1ccc(CNC(=O)c2cccnc2)cc1 | 1000 nM | – |
| COc1ccccc1C(=O)NCc1ccc(CNS(=O)(=O)c2ccc(F)cc2)cc1 | 100 nM | – |
| Cc1ccccc1C(=O)NCc1ccc(CNS(=O)(=O)c2ccc(F)cc2)cc1 | 10 nM | – |
| Cc1cccc(S(=O)(=O)NCc2ccc(CNC(=O)c3ccccc3C)cc2)c1 | 1000 nM | – |
| O=C(NCc1ccc(CNS(=O)(=O)c2ccccc2Cl)cc1)c1cccnc1 | 100 nM | inhibition (MDA-MB-231 [2]): Active; inhibition (MDA-MB-231 [3]): Active; inhibition [4]: 96%; inhibition (HUVEC): Active |
| COc1ccccc1C(=O)NCc1ccc(CNS(=O)(=O)c2ccccc2F)cc1 | 1 nM | inhibition [5]: inactive |
| O=C(NCc1ccc(CNS(=O)(=O)c2ccc(Cl)cc2)cc1)c1cccnc1 | 1000 nM | – |
| COc1ccccc1C(=O)NCc1ccc(CNS(=O)(=O)c2cccc3ccccc23)cc1 | > 1000 nM | – |
| COc1ccccc1C(=O)NCc1ccc(CNS(=O)(=O)c2ccc(Cl)cc2)cc1 | 1000 nM | – |
| COc1ccccc1C(=O)NCc1ccc(CNS(=O)(=O)c2cccc(C)c2)cc1 | 1000 nM | – |
| Cc1ccccc1C(=O)NCc1ccc(CNS(=O)(=O)c2ccccc2Cl)cc1 | 1000 nM | – |
| COc1ccccc1C(=O)NCc1ccc(CNS(=O)(=O)c2cccc(Cl)c2)cc1 | 1000 nM | – |
| COc1ccccc1C(=O)NCc1ccc(CNS(=O)(=O)c2ccccc2C)cc1 | 1000 nM | – |
| COc1ccccc1C(=O)NCc1ccc(CNS(=O)(=O)c2cccc(F)c2)cc1 | 1000 nM | – |
| Cc1ccccc1C(=O)NCc1ccc(CNS(=O)(=O)c2ccc(Cl)cc2)cc1 | 1 nM | – |
| O=C(NCc1ccc(CNS(=O)(=O)c2cccc3ccccc23)cc1)c1cccnc1 | 1000 nM | – |
| COc1ccccc1C(=O)NCc1ccc(CNS(=O)(=O)c2ccc([N+](=O)[O-])cc2)cc1 | 100 nM | – |
| Cc1ccccc1C(=O)NCc1ccc(CNS(=O)(=O)c2cccc(Cl)c2)cc1 | 100 nM | inhibition (MDA-MB-231 [2]): Active; inhibition (MDA-MB-231 [3]): Active; inhibition [4]: 99% |
| Cc1ccccc1C(=O)NCc1ccc(CNS(=O)(=O)c2cccc3ccccc23)cc1 | 100 nM | – |
| Cc1ccccc1C(=O)NCc1ccc(CNS(=O)(=O)c2cccc(F)c2)cc1 | 100 nM | – |
| Cc1ccccc1C(=O)NCc1ccc(CNS(=O)(=O)c2ccccc2C)cc1 | 10 nM | inhibition (MDA-MB-231 [2]): Active; inhibition (MDA-MB-231 [3]): Active; inhibition [4]: 99%; inhibition (HUVEC): Active |
| O=C(NCc1ccc(CNS(=O)(=O)c2cccc(F)c2)cc1)c1cccnc1 | 1000 nM | – |
| Cc1cccc(S(=O)(=O)NCc2ccc(CNC(=O)c3cccnc3)cc2)c1 | 10 nM | – |
| O=C(NCc1ccc(CNS(=O)(=O)c2ccc([N+](=O)[O-])cc2)cc1)c1cccnc1 | 100 nM | inhibition [5]: inactive |
| O=C(NCc1ccc(CNS(=O)(=O)c2ccc(F)cc2)cc1)c1cccnc1 | 100 nM | inhibition (MDA-MB-231 [6]): Active; inhibition (MDA-MB-231 [7]): Dose-dependent effect; inhibition (MDA-MB-231 [8]): Active; inhibition (MDA-MB-231 [2]): Active; inhibition in vivo at 20 mg/kg (MDA-MB-231 [9]): 43%; Activity [10]: Non-Toxic; inhibition (MDA-MB-231 [3]): Active; inhibition [4]: 92%; Activity (MDA-MB-231 [11]): Active; inhibition (HUVEC): Active; inhibition (MDA-MB-231 [12]): Active |
| Cc1ccccc1C(=O)NCc1ccc(CNS(=O)(=O)c2ccccc2F)cc1 | 1000 nM | – |
| Cc1ccccc1C(=O)NCc1ccc(CNS(=O)(=O)c2ccc([N+](=O)[O-])cc2)cc1 | 100 nM | – |
| COc1ccccc1C(=O)NCc1ccc(CNS(=O)(=O)c2ccccc2Cl)cc1 | 100 nM | inhibition (MDA-MB-231 [2]): Active; inhibition (MDA-MB-231 [3]): Active; inhibition [4]: 99% |
| O=C(NCc1ccc(CNS(=O)(=O)c2cccc(Cl)c2)cc1)c1cccnc1 | 100 nM | – |
